Measured values from patent US11579152B2, “Engineered hERG channel proteins, vesicles and methods of identifying small molecule pharmacological agents” (priority 2016, dated 2023).
Read-outs that look alike come from different tables or passages of the source.

Assays:
hERG channel [1] = molecular target: T1, hERG channel (Homo sapiens, UniProt Q12809, DEL141-380/DEL871-1005); experiment: liposome flux assay (LFA) with engineered hERG channel protein in proteoliposomes; details: n = 3, mean ± SEM, compared with DMSO controls
hERG = hERG (Homo sapiens, UniProt Q12809); details: cited from earlier work
hERG channel [2] = molecular target: T1, hERG channel
hERG channel [3] = molecular target: T1, hERG channel; experiment: in vitro; details: pH 7.4
hERG channel [4] = molecular target: T1, hERG channel; experiment: biochemical
[5] = read-out: IC50 patch, electrophysiology-determined values reported in the literature

Compound | inhibition at 100 µM (hERG channel [3]) [%] | also measured
NC[C@H](O)c1ccc(O)c(O)c1 [Arterenol] |  | Percentage inhibition (%) at 100 μM (hERG channel [1]): 3.7 ± 4.3%
O=c1n(CCCN2CCN(c3cccc(Cl)c3)CC2)nc2ccccn12 [Trazadone] |  | IC50 (hERG): 690 to 2900 nM; IC50 (hERG channel [2]): 9250 ± 529 nM
CCCCOc1ccc(CC(=O)NO)cc1 [Bufexamac] | 1.7 ± 6.8 | 
CC(=O)Nc1nnc(S(N)(=O)=O)s1 [Acetazolamide] | 4.4 ± 1.8 | 
CC1(C)O[C@H]1COc1c2ccoc2cc2oc(=O)ccc12 [Oxypeucedanin] | 4.5 ± 19.3 | 
Penicillin |  | Percentage inhibition (%) at 100 μM (hERG channel [1]): −0.4 ± 9.5%
CC(=O)CC(c1ccccc1)c1c(O)c2ccccc2oc1=O (centres unmarked) [Warfarin] | 9.1 ± 5.5 | 
CCN(CC)CCCN(c1ccccc1)C1Cc2ccccc2C1 [Aprindine] |  | IC50 (hERG; [5]): 230 nM; IC50 (hERG channel [4]): 1880 ± 221 nM
CC(C(O)c1ccc(O)cc1)N1CCC(Cc2ccccc2)CC1 (centres unmarked) [Ifenprodil] |  | IC50 (hERG; [5]): 410 nM; IC50 (hERG channel [4]): 1590 ± 71 nM
C[N+]1([O-])CCN(C2=Nc3cc(Cl)ccc3Nc3ccccc32)CC1 [Clozapine N-oxide] |  | Percentage inhibition (%) at 100 μM (hERG channel [2]; 100 µM): 2.1 ± 3.0%
Clc1cccc(Cl)c1N=C1NCCN1 [Clonidine] | 15.2 ± 5.8 | 
CC(=O)Nc1ccc(O)cc1 [Acetaminophen] | 11.6 ± 7.5 | 
COC[C@H]1OC(=O)c2coc3c2[C@@]1(C)C1=C(C3=O)[C@@H]2CCC(=O)[C@@]2(C)C[C@H]1OC(C)=O [Wortmannin] | 1.7 ± 5.8 | 
N=C(N)SCCc1ccc(OCc2ccc([N+](=O)[O-])cc2)cc1 [KB-R7943] |  | IC50 (hERG; [5]): 89 nM; IC50 (hERG channel [2]): 1780 ± 140 nM
CN1CCN(CCCCN2C(=O)CN(/N=C/c3ccc(-c4ccc(Cl)cc4)o3)C2=O)CC1 [Azimilide] |  | IC50 (hERG; [5]): 891 nM; IC50 (hERG channel [4]): 4280 ± 1030 nM
CN(C)c1ccc(O)c2c1C[C@H]1C[C@H]3[C@H](N(C)C)C(O)=C(C(N)=O)C(=O)[C@@]3(O)C(O)=C1C2=O [Minocycline] | -2.5 ± 11.9 | 
C[N+](C)(C)CCOC(N)=O [Carbachol] | 2.2 ± 4.2 | 
C=C(CC)C(=O)c1ccc(OCC(=O)O)c(Cl)c1Cl [Ethacrynic acid] | 8.1 ± 4.4 | 
CC(C)Cc1ccc(C(C)C(=O)O)cc1 (centres unmarked) [Ibuprofen] | 13.1 ± 2.1 | 
COc1ccccc1OCC(O)CO (centres unmarked) [Guaifenesin] | -3.5 ± 7.4 | 
CC1Cc2ccccc2N1NC(=O)c1ccc(Cl)c(S(N)(=O)=O)c1 (centres unmarked) [Indapamide] | 4.8 ± 6.7 | 
CN/C(=N/CCSCc1nc[nH]c1C)NC#N [Cimetidine] | 19.9 ± 3.7 | 
COc1cc(Cc2cnc(N)nc2N)cc(OC)c1OC [Trimethoprim] | 20.6 ± 1.9 | 
CC1=C(CC(=O)O)c2cc(F)ccc2/C1=C\c1ccc([S+](C)[O-])cc1 (centres unmarked) [Sulindac] | 1.1 ± 2.8 | 
